Reference: US11773078B2, “Furin inhibitors” (Glaxosmithkline Intellectual Property Development Limited, priority 2018, dated 2023)
Structures can show the parent of a compound that is named as a salt.

Legend:
[1] = molecular target: T1, Furin (108-574-Tev-Flag-His) enzyme (Homo sapiens, UniProt P09958); experiment: Furin enzyme assay; type: biochemical
T1 construct: Furin (108-574-Tev-Flag-His) enzyme was expressed and purified from CHO cells; TEV cleavage site (C); FLAG (C); His (C); made in house; host or cells: CHO cells
Procedure, shortened: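 CHO-expressed, purified furin construct at 40 pM in 100 mM HEPES pH7.5, 1 mM CaCl2, 0.005% Triton X-100. Eleven-point 1:3 series, 0.00017–10 μM final, incubated 2 h at room temperature and read on Envision. pXC50 from four-parameter fit.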

[2] = molecular target: T2, furin (endogenous protease) in U20S cells (Homo sapiens, UniProt P09958); experiment: Furin cell-based assay (image-based, Golgi-targeted GFP with BMP10 furin/PCSK cleavage site); conditions: 24-hour incubation, read-out: furin golgi cell pXC50 (converted);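 note: Read-out is mean GFP fluorescence of Golgi puncta per cell by high-content imaging, retained when furin inhibited, over an eleven-point 0.00017–10 µM series, four-parameter fit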
T2 construct: the endogenous protease cleaves GFP; endogenous in cells; host or cells: U2OS cells transduced with a BacMam reporter
T2 sequence (P09958 108-794): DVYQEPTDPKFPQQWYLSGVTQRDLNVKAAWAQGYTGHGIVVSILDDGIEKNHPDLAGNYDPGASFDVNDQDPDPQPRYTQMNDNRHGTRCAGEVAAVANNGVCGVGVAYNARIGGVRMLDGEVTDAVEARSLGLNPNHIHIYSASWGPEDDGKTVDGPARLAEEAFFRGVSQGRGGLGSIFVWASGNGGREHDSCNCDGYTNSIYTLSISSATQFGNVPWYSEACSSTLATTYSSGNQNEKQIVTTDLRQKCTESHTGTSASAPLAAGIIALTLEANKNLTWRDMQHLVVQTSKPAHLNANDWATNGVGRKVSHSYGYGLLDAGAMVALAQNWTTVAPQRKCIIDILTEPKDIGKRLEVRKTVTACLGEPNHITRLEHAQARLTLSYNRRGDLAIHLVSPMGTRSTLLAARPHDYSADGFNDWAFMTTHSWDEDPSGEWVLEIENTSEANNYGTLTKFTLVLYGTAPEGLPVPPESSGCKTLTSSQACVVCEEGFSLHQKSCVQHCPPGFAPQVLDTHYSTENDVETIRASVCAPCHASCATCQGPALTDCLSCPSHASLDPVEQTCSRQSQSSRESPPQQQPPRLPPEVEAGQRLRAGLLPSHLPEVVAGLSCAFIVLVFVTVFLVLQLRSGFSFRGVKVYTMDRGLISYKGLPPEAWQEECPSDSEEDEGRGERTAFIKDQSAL

T1 sequence (P09958 108-574): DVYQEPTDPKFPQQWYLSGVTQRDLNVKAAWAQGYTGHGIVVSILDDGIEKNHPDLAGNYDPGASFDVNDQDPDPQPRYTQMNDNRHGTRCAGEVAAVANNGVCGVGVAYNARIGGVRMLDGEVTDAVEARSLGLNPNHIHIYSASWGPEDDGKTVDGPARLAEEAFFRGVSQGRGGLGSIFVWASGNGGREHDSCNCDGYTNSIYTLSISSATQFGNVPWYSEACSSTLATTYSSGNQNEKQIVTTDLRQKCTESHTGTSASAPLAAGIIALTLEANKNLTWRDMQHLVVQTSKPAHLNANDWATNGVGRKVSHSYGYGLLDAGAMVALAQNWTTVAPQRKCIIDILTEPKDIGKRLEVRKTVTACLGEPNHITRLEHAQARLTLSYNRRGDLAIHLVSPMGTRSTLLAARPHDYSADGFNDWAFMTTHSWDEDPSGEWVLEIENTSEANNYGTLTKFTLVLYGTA

furin enzyme pIC50 [1] | EC50 [2] [nM] | Compound
9.1 | 3.16 | CNC(=O)NCC1CCN(Cc2cc(Oc3cnc(N4CCNCC4)nc3)nc(-c3cc(Cl)cc(Cl)c3)c2)CC1 [Example 75, 1-((1-((2-(3,5-Dichlorophenyl)-6-((2-(piperazin-1-yl)pyrimidin-5-yl)oxy)pyridin-4-yl)methyl)piperidin-4-yl)methyl)-3-methylurea, 4 hydrochloride]
8.4 | 10 | COC(=O)NCC1CCN(Cc2cc(Oc3ccc(N4CCNCC4)nc3)nc(-c3cc(Cl)cc(Cl)c3)c2)CC1 [Example 76, Methyl 1(1-((2-(3,5-dichlorophenyl)-6-((6-(piperazin-1-yl)pyridin-3-yl)oxy)pyridin-4-yl)methyl)piperidin-4-yl)methyl)carbamate, 4 hydrochloride]
9.1 | 63.1 | CNC(=O)OCC1CCN(Cc2cc(Oc3ccc(N4CCN(CCC(=O)O)CC4)nc3)nc(-c3cc(Cl)cc(Cl)c3)c2)CC1 [Example 77, 3-(4-(5-((6-(3,5-Dichlorophenyl)-4-((4-(((methylcarbamoyl)oxy)methyl)piperidin-1-yl)methyl)pyridin-2-yl)oxy)pyridin-2-yl)piperazin-1-yl)propanoic acid, 4 hydrochloride]
8 | 63.1 | NC(=O)CCN1CCN(Cc2cc(Oc3cnc(N4CCN(CCC(=O)O)CC4)nc3)nc(-c3cc(Cl)cc(Cl)c3)c2)CC1 [Example 78, 3-(4-(5-((4-((4-(3-Amino-3-oxopropyl)piperazin-1-yl)methyl)-6-(3,5-dichlorophenyl)pyridin-2-yl)oxy)pyrimidin-2-yl)piperazin-1-yl)propanoic acid]
8.3 | 79.4 | NC(=O)CN1CCN(Cc2cc(Oc3cnc(N4CCN(CCC(=O)O)CC4)nc3)nc(-c3cc(Cl)cc(Cl)c3)c2)CC1 [Example 79, 3-(4-(5-((4-((4-(2-amino-2-oxoethyl)piperazin-1-yl)methyl)-6-(3,5-dichlorophenyl)pyridin-2-yl)oxy)pyrimidin-2-yl)piperazin-1-yl)propanoic acid]
9.5 | 7.94 | CS(=O)(=O)N[C@H]1[C@@H]2CCN(Cc3cc(Oc4cnc(N5CCN(CCC(=O)O)CC5)nc4)nc(-c4cc(Cl)cc(Cl)c4)c3)CC[C@@H]21 [Example 80, 3-(4-(5-((6-(3,5-dichlorophenyl)-4-(((1R,7S,8r)-8-(methylsulfonamido)-4-azabicyclo[5.1.0]octan-4-yl)methyl)pyridin-2-yl)oxy)pyrimidin-2-yl)piperazin-1-yl)propanoic acid]
9.4 | 6.31 | CC(CCN1CCN(c2ncc(Oc3cc(CN4CC[C@@H]5[C@H](CC4)[C@H]5NS(C)(=O)=O)cc(-c4cc(Cl)cc(Cl)c4)n3)cn2)CC1)C(=O)O (stereo partly drawn) [Example 81, 4-(4-(5-((6-(3,5-dichlorophenyl)-4-(((1R,7S,8r)-8-(methylsulfonamido)-4-azabicyclo[5.1.0]octan-4-yl)methyl)pyridin-2-yl)oxy)pyrimidin-2-yl)piperazin-1-yl)-2-methylbutanoic acid]
9.3 | 5.01 | CC(=O)N[C@H]1[C@@H]2CCN(Cc3cc(Oc4cnc(N5CCN(CCC(C)C(=O)O)CC5)nc4)nc(-c4cc(Cl)cc(Cl)c4)c3)CC[C@@H]21 (stereo partly drawn) [Example 82, 4-(4-(5-((4-(((1R,7S,8r)-8-acetamido-4-azabicyclo[5.1.0]octan-4-yl)methyl)-6-(3,5-dichlorophenyl)pyridin-2-yl)oxy)pyrimidin-2-yl)piperazin-1-yl)-2-methylbutanoic acid]
8.9 | 50.1 | CC(CCN1CCN(c2ncc(Oc3cc(CN4CCCC4)cc(-c4cc(Cl)cc(Cl)c4)n3)cn2)CC1)C(=O)O (stereo not shown) [Example 83, 4-(4-(5-((6-(3,5-dichlorophenyl)-4-(pyrrolidin-1-ylmethyl)pyridin-2-yl)oxy)pyrimidin-2-yl)piperazin-1-yl)-2-methylbutanoic acid]
9.3 | 7.94 | O=C(O)CCN1CCN(c2ncc(Oc3cc(CN4CCC(CNC(=O)C5CC5)CC4)cc(-c4cc(Cl)cc(Cl)c4)n3)cn2)CC1 [Example 84, 3-(4-(5-((4-((4-(cyclopropanecarboxamidomethyl)piperidin-1-yl)methyl)-6-(3,5-dichlorophenyl)pyridin-2-yl)oxy)pyrimidin-2-yl)piperazin-1-yl)propanoic acid]
8.1 | 158 | CP(C)(=O)CC1CCN(Cc2cc(Oc3ccc(N4CCN(CCC(=O)O)CC4)nc3)nc(-c3cc(Cl)cc(Cl)c3)c2)CC1 [Example 85, 3-(4-(5-((6-(3,5-dichlorophenyl)-4-((4-((dimethylphosphoryl)methyl)piperidin-1-yl)methyl)pyridin-2-yl)oxy)pyridin-2-yl)piperazin-1-yl)propanoic acid]
8.9 | 10 | NC(=O)CC1CCN(Cc2cc(Oc3cnc(N4CCNCC4)nc3)nc(-c3cc(Cl)cc(Cl)c3)c2)CC1 [Example 86, 2-(1-((2-(3,5-Dichlorophenyl)-6-((2-(piperazin-1-yl)pyrimidin-5-yl)oxy)pyridine-4-yl)methyl)piperidin-4-yl)acetamide, 4 hydrochloride]
9 | 3.98 | CN1CCN(c2ncc(Oc3cc(CN4CCC(CCS(N)(=O)=O)CC4)cc(-c4cc(Cl)cc(Cl)c4)n3)cn2)CC1 [Example 87, 2-(1-((2-(3,5-Dichlorophenyl)-6-((2-(4-methylpiperazin-1-yl)pyrimidin-5-yl)oxy)pyridin-4-yl)methyl)piperidin-4-yl)ethanesulfonamide, 4 hydrochloride]
9.1 | 5.01 | CC(=O)NCC1CCN(Cc2cc(Oc3cnc(N4CCN(CCC(N)=O)CC4)nc3)nc(-c3cc(Cl)cc(Cl)c3)c2)CC1 [Example 88, 3-(4-(5-((4-((4-(Acetamidomethyl)piperidin-1-yl)methyl)-6-(3,5-dichlorophenyl)pyridin-2-yl)oxy)pyrimidin-2-yl)piperazin-1-yl)propanamide]
8 | 12.6 | CC(=O)NCC1CCN(Cc2cc(Oc3ccc(N4CCNCC4)nc3)nc(-c3cc(Cl)cc(Cl)c3)n2)CC1 [Example 89, N-((1-((2-(3,5-Dichlorophenyl)-6-((6-(piperazin-1-yl)pyridin-3-yl)oxy)pyrimidin-4-yl)methyl)piperidin-4-yl)methyl)acetamide, 4 hydrochloride]
8.5 | 7.94 | CC(=O)NCC1CCN(Cc2cc(-c3cc(Cl)cc(Cl)c3)nc(Oc3ccc(N4CCNCC4)nc3)n2)CC1 [Example 90, N-((1-((6-(3,5-Dichlorophenyl)-2-((6-(piperazin-1-yl)pyridin-3-yl)oxy)pyrimidin-4-yl)methyl)piperidin-4-yl)methyl)acetamide]
8.4 | 39.8 | CC(=O)NCC1(O)CCN(Cc2cc(Oc3cnc(N4CCNCC4)c(F)c3)nc(-c3cc(Cl)cc(Cl)c3)c2)CC1 [Example 91, N-((1-((2-(3,5-Dichlorophenyl)-6-((5-fluoro-6-(piperazin-1-yl)pyridin-3-yl)oxy)pyridin-4-yl)methyl)-4-hydroxypiperidin-4-yl)methyl)acetamide, 4 hydrochloride]
8.9 | 3.16 | CC(=O)NCC1CCN(Cc2cc(Oc3cnc(N4CCNCC4)nc3)nc(-c3cc(Cl)cc(Cl)c3)c2)CC1 [Example 92, N-((1-((2-(3,5-Dichlorophenyl)-6-((2-(piperazin-1-yl)pyrimidin-5-yl)oxy)pyridin-4-yl)methyl)piperidin-4-yl)methyl)acetamide]
8.9 | 5.01 | CC(=O)NCC1CCN(Cc2cc(Oc3cnc(N4CCN(CCO)CC4)nc3)nc(-c3cc(Cl)cc(Cl)c3)c2)CC1 [Example 93, N-((1-((2-(3,5-dichlorophenyl)-6-((2-(4-(2-hydroxyethyl)piperazin-1-yl)pyrimidin-5-yl)oxy)pyridin-4-yl)methyl)piperidin-4-yl)methyl)acetamide, 4 hydrochloride]
8.9 | 5.01 | CNC(=O)CCN1CCN(c2ncc(Oc3cc(CN4CCC(CNC(C)=O)CC4)cc(-c4cc(Cl)cc(Cl)c4)n3)cn2)CC1 [Example 94, 3-(4-(5-((4-((4-(Acetamidomethyl)piperidin-1-yl)methyl)-6-(3,5-dichlorophenyl)pyridin-2-yl)oxy)pyrimidin-2-yl)piperazin-1-yl)-N-methylpropanamide, 4 hydrochloride]
9.9 | 1.58 | CC(=O)NCC1CCN(Cc2cc(Oc3cnc(N4CCN(C(C)CC(N)=O)CC4)nc3)nc(-c3cc(Cl)cc(Cl)c3)c2)CC1 (stereo not shown) [Example 95, 3-(4-(5-((4-((4-(Acetamidomethyl)piperidin-1-yl)methyl)-6-(3,5-dichlorophenyl)pyridin-2-yl)oxy)pyrimidin-2-yl)piperazin-1-yl)butanamide, 4 hydrochloride]
9 | 1.58 | CC(=O)NCC1CCN(Cc2cc(Oc3cnc(N4CCN(CCCC(N)=O)CC4)nc3)nc(-c3cc(Cl)cc(Cl)c3)c2)CC1 [Example 96, 4-(4-(5-((4-((4-(Acetamidomethyl)piperidin-1-yl)methyl)-6-(3,5-dichlorophenyl)pyridin-2-yl)oxy)pyrimidin-2-yl)piperazin-1-yl)butanamide]
8.4 | 25.1 | CNC1CCN(c2ccc(Oc3cc(CNCCOC)cc(-c4cc(Cl)cc(Cl)c4)c3)cn2)CC1 [Example 97, 1-(5-((3′,5′-Dichloro-5-(((2-methoxyethyl)amino)methyl)-[1,1′-biphenyl]-3-yl)oxy)pyridin-2-yl)-N-methylpiperidin-4-amine]
